ChEMBL document CHEMBL1909046, “DrugMatrix in vitro pharmacology data”

How the values were obtained:
[1] = target: Delta-type opioid receptor (Homo sapiens, UniProt P41143); format: cell membranes, HEK293, Membrane; conditions: hek293; also: in other assays of this panel Not Active means under 50% inhibition at 10 µM
Interstitial collagenase = target: T1, Interstitial collagenase (Homo sapiens, UniProt P03956); format: tissue-based, Rheumatoid synovial fibroblasts;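 also: MMP-1 enzyme inhibition assay using a peptide substrate; in other assays of this panel Not Active means under 50% inhibition at 10 µM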
T1 sequence (P03956 whole entry): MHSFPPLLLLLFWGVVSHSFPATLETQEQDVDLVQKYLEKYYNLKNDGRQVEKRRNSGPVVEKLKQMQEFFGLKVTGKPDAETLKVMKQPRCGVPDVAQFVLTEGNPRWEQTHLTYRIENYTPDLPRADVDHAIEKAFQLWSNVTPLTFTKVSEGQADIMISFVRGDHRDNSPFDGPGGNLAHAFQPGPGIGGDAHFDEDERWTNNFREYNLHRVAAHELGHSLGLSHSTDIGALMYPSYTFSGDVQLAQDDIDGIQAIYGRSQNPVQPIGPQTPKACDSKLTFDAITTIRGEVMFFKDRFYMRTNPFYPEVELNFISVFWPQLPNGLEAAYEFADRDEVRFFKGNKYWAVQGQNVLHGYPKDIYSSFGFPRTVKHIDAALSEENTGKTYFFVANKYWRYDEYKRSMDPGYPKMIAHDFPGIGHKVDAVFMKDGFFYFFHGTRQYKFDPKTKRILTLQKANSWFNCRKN

[2] = target: T2, Alpha-2C adrenergic receptor (Homo sapiens, UniProt P18825); experiment: DRUGMATRIX: Adrenergic Alpha-2C radioligand binding (ligand: [3H] MK-912); format: cell membranes, Sf9, Membrane; conditions: sf9
T2 sequence (P18825 whole entry): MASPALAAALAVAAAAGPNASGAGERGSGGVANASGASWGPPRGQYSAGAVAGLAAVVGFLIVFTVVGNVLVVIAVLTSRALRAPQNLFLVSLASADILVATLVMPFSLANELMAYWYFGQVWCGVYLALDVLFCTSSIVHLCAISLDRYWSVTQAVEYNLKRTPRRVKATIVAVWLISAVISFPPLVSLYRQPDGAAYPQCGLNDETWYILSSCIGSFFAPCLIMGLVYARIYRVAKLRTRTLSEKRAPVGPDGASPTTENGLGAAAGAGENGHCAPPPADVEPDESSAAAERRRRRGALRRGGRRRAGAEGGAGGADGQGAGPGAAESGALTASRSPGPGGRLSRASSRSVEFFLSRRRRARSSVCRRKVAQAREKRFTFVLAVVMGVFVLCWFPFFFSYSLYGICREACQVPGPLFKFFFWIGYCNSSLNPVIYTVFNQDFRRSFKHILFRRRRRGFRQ

Melanocortin receptor 3 = Melanocortin receptor 3 (Homo sapiens, UniProt P41968); format: cell membranes, Membrane; conditions: hek293; also: in other assays of this panel Not Active means under 50% inhibition at 10 µM
Sequence of Melanocortin receptor 3 (P41968 whole entry): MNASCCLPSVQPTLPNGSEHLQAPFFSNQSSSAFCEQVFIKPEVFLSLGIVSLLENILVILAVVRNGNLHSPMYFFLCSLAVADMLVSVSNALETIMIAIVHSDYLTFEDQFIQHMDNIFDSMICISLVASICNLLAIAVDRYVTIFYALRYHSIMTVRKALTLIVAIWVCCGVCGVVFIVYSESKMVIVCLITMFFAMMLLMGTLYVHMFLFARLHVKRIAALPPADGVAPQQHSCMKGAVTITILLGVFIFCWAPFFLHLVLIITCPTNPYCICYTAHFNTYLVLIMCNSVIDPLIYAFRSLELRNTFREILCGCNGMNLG

[3] = target: T3, Amine oxidase [flavin-containing] A (Homo sapiens, UniProt P21397); experiment: DRUGMATRIX: Monoamine Oxidase MAO-A enzyme inhibition (substrate: Kynuramine); design: species or system BTI-TN-5B1-4; conditions: bti-tn-5b1-4; Not Active = under 50% inhibition at 10 µM
T3 sequence (P21397 whole entry): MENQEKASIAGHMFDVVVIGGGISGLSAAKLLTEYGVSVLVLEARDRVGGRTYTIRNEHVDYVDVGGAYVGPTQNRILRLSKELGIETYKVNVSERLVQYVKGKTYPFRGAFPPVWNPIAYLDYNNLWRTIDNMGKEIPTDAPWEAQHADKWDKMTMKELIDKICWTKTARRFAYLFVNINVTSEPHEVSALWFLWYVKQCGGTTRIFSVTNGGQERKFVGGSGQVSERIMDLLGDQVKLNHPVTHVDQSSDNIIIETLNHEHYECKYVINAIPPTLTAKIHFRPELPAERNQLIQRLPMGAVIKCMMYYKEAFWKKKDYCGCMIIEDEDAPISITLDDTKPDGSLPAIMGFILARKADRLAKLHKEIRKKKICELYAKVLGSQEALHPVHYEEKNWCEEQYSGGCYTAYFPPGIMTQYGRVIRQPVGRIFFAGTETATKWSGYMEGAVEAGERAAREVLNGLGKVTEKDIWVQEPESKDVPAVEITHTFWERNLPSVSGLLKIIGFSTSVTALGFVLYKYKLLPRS

[4] = DRUGMATRIX: Calcium Channel Type L, Benzothiazepine radioligand binding (ligand: [3H] Diltiazem); format: cell membranes, Rattus norvegicus, Wistar, Brain, Membrane; conditions: Not Active = under 50% inhibition at 10 µM
[5] = DRUGMATRIX: Platelet-Derived Growth Factor (PDGF) radioligand binding (ligand: [125I] PDGF); format: cell-based; conditions: nih3t3; Not Active = under 50% inhibition at 10 µM
[6] = target: Protein phosphatase 3 catalytic subunit alpha (Homo sapiens, UniProt Q08209); design: species or system Escherichia coli;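 also: inhibition of calcineurin (PP2B) enzyme activity, measured with DiFMUP as the substrate; in other assays of this panel Not Active means under 50% inhibition at 10 µM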
[7] = target: Matrix metalloproteinase-9 (Homo sapiens, UniProt P14780); format: cell-based
Sequence of Matrix metalloproteinase-9 (P14780 whole entry): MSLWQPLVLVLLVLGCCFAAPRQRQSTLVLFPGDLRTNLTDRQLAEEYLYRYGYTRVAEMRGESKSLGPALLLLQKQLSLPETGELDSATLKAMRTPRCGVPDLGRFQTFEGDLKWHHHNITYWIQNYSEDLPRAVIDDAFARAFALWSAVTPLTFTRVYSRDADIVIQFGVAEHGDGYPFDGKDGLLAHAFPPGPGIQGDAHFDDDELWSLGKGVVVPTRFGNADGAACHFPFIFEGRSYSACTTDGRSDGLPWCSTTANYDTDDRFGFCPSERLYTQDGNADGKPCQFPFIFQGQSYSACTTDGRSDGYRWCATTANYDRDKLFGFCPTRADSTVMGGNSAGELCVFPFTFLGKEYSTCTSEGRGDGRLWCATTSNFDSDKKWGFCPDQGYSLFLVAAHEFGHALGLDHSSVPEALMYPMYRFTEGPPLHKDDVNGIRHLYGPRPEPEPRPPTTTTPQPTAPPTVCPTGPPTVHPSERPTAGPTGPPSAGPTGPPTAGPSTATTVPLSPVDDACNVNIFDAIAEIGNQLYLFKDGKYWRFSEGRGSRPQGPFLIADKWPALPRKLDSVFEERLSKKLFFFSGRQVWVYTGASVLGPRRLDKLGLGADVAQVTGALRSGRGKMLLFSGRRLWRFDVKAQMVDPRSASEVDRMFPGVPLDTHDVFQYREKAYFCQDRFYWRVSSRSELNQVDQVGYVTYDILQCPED

[8] = DRUGMATRIX: Purinergic P2X radioligand binding (ligand: [3H] alpha, beta-Methylene-ATP); format: cell membranes, Oryctolagus cuniculus, New Zealand albino, Urinary bladder, Membrane; conditions: Not Active = under 50% inhibition at 10 µM
[9] = target: T4, Alpha-1A adrenergic receptor (Rattus norvegicus, UniProt P43140); experiment: DRUGMATRIX: Alpha-1A adrenergic receptor radioligand binding (ligand: prazosin); format: cell membranes, Wistar, Submaxillary gland, Membrane; conditions: Not Active = under 50% inhibition at 10 µM
T4 sequence (P43140 whole entry): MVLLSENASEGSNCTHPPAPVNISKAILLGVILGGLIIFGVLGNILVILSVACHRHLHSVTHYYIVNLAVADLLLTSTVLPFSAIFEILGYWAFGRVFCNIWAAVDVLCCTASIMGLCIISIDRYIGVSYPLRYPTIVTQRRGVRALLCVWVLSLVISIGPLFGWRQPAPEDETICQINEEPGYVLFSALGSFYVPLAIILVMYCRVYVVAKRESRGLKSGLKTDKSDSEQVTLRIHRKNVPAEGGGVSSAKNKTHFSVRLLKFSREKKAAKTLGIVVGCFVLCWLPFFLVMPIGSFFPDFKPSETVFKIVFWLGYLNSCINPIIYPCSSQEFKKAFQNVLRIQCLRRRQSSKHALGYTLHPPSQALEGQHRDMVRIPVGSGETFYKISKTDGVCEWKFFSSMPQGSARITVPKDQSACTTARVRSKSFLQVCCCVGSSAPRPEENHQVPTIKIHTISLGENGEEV

[10] = target: T5, C-X-C chemokine receptor type 2 (Homo sapiens, UniProt P25025); format: cell membranes, Membrane; conditions: cho-k1; also: in other assays of this panel Not Active means under 50% inhibition at 10 µM
T5 sequence (P25025 whole entry): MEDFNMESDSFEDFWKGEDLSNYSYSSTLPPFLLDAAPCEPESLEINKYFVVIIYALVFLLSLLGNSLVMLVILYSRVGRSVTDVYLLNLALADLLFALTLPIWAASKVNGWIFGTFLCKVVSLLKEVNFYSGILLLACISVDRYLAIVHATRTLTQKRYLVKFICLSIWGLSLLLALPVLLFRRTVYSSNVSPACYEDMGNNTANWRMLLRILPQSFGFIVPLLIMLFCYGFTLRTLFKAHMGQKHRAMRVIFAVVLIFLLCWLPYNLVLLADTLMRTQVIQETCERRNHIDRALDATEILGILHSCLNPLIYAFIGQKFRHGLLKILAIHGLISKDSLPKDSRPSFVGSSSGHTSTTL

Sequence of Delta-type opioid receptor (P41143 whole entry): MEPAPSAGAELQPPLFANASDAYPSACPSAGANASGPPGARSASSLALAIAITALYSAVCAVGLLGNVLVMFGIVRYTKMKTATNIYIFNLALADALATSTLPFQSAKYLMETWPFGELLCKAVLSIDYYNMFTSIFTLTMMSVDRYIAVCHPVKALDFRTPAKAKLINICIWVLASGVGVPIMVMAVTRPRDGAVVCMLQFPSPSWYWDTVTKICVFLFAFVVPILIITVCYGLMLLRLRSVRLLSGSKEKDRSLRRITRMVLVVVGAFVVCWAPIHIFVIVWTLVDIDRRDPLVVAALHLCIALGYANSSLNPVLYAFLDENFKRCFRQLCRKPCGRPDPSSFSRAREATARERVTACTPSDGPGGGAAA

NNc1ccccc1 [PHENYLHYDRAZINE]
Not Active: IC50 [1] | IC50 (Interstitial collagenase) | IC50 [2] | IC50 (Melanocortin receptor 3) | IC50 [3] | IC50 [4] | Ki [4] | IC50 [5] | Ki [5] | IC50 [6] | IC50 [7] | IC50 [8] | Ki [8] | IC50 [9] | IC50 [10]

CC(=O)[C@H]1CC[C@H]2[C@@H]3CCC4=CC(=O)CC[C@]4(C)[C@H]3CC[C@]12C [PROGESTERONE]
Not Active: IC50 [1] | IC50 (Interstitial collagenase) | IC50 [2] | IC50 (Melanocortin receptor 3) | IC50 [3] | IC50 [4] | Ki [4] | IC50 [5] | Ki [5] | IC50 [6] | IC50 [7] | IC50 [8] | Ki [8] | IC50 [9] | IC50 [10]

NC(=O)c1ncn([C@@H]2O[C@H](CO)[C@@H](O)[C@H]2O)n1 [RIBAVIRIN]
Not Active: IC50 [1] | IC50 (Interstitial collagenase) | IC50 [2] | IC50 (Melanocortin receptor 3) | IC50 [3] | IC50 [4] | Ki [4] | IC50 [5] | Ki [5] | IC50 [6] | IC50 [7] | IC50 [8] | Ki [8] | IC50 [9] | IC50 [10]

O=[N+]([O-])c1cc([As](=O)(O)O)ccc1O [ROXARSONE]
Not Active: IC50 [1] | Ki [1] | IC50 (Interstitial collagenase) | Ki (Interstitial collagenase) | IC50 [2] | Ki [2] | IC50 (Melanocortin receptor 3) | Ki (Melanocortin receptor 3) | IC50 [3] | Ki [3] | IC50 [4] | Ki [4] | IC50 [5] | Ki [5] | IC50 [6] | Ki [6] | IC50 [7] | Ki [7] | IC50 [8] | Ki [8] | IC50 [9] | Ki [9] | IC50 [10] | Ki [10]

CC[C@H]1OC(=O)[C@H](C)[C@@H](O[C@H]2C[C@@](C)(OC)[C@@H](O)[C@H](C)O2)[C@H](C)[C@@H](O[C@@H]2O[C@H](C)C[C@H](N(C)C)[C@H]2O)[C@](C)(O)C[C@@H](C)/C(=N\OCOCCOC)[C@H](C)[C@@H](O)[C@]1(C)O [ROXITHROMYCIN]
Not Active: IC50 [1] | IC50 (Interstitial collagenase) | IC50 [2] | IC50 (Melanocortin receptor 3) | IC50 [3] | IC50 [4] | Ki [4] | IC50 [5] | Ki [5] | IC50 [6] | IC50 [7] | IC50 [8] | Ki [8] | IC50 [9] | IC50 [10]

NC(=O)c1ccccc1O [SALICYLAMIDE]
Not Active: IC50 [1] | IC50 (Interstitial collagenase) | IC50 [2] | IC50 (Melanocortin receptor 3) | IC50 [3] | IC50 [4] | Ki [4] | IC50 [5] | Ki [5] | IC50 [6] | IC50 [7] | IC50 [8] | Ki [8] | IC50 [9] | IC50 [10]

Cc1ncc([N+](=O)[O-])n1CC(C)O (centres undefined) [SECNIDAZOLE]
Not Active: IC50 [1] | IC50 (Interstitial collagenase) | IC50 [2] | IC50 (Melanocortin receptor 3) | IC50 [3] | IC50 [4] | Ki [4] | IC50 [5] | Ki [5] | IC50 [6] | IC50 [7] | IC50 [8] | Ki [8] | IC50 [9] | IC50 [10]

CN[C@@H]1[C@@H](O)[C@@H](O[C@@H]2[C@@H](O)[C@H](O[C@H]3OC(CN)=CC[C@H]3N)[C@@H](N)C[C@H]2N)OC[C@]1(C)O [SISOMICIN]
Not Active: IC50 [1] | IC50 (Interstitial collagenase) | IC50 [2] | IC50 (Melanocortin receptor 3) | IC50 [3] | IC50 [4] | Ki [4] | IC50 [5] | Ki [5] | IC50 [6] | IC50 [7] | IC50 [8] | Ki [8] | IC50 [9] | IC50 [10]
